Measured values taken from patent publication US9809858B2, “O-glycan pathway ovarian cancer signature” (H. LEE MOFFITT CANCER CENTER AND RESEARCH INSTITUTE, INC., priority 2012, dated 2017).

How the values were obtained:
M41CSR OVCA cell line = assay: CellTiter-Blue cell viability assay, M41CSR; type: cell-based; settings: Homo sapiens; M41CSR cells, 72 hours, growth/viability
Text: (§1) OVCA cell lines were obtained from the American Type Culture Collection (Manassas, Va.; CAOV3, OV90, OVCAR3, SKOV3), from the European Collection of Cell Cultures (Salisbury, UK; A2780CP, A2780S), from Kyoto University (Kyoto, Japan; CHI, CHIcisR, M41, M41CSR, Tyknu, and TyknuCisR), or as kind gifts (A2008, C13, CAOV2, HeyA8, IGR-OV1, IMCC3, IMCC5, MCAS, OV2008, OVCA420, OVCA429, OVCA432, OVCA433, FUOV1, PEO1, PEO4, SK-OV-6, T8, TOV-112D, TOV-21-G, Dov13, BG1, Ovary1847, OVCAR10, OVCAR8, OVCAR5, OVCAR4, OVCAR2, SK-OV-4). Cell lines were maintained in RPMI 1640 medium (Invitrogen, Carlsbad, Calif.) supplemented with 10% fetal bovine serum (Fisher Scientific, Pittsburgh, Pa.), 1% sodium pyruvate, 1% penicillin/streptomycin (Cellgro, Manassas, Va.), and 1% nonessential amino acids (HyClone, Hudson, N.H.). Mycoplasma testing was performed every 6 months, in accordance with the manufacturer's protocol (Lonza, Rockland, Me.).
(§2) Drug activity was evaluated using a high-throughput CellTiter-Blue® cell viability assay. […] Fluorescence was read at 579-nm excitation/584-nm emission using a Synergy™ 4 microplate reader (Bio-Tek Instruments, Inc., Winooski, Vt.). IC50 values were determined using a sigmoidal equilibrium model fit (XLfit 5.2, ID Business Solutions Ltd.). […]

IGR-OV1 OVCA cell line = assay: CellTiter-Blue cell viability assay, IGR-OV1; type: cell-based; settings: Homo sapiens, IGROV-1; IGR-OV1 cells, 72 hours, growth/viability
Text: as §1, §2

MCAS OVCA cell line = assay: CellTiter-Blue cell viability assay, MCAS; type: cell-based; settings: Homo sapiens; MCAS cells, 72 hours, growth/viability
Text: as §1, §2

CHIcisR OVCA cell line = assay: CellTiter-Blue cell viability assay, CHIcisR; type: cell-based; settings: Homo sapiens; CHIcisR cells, 72 hours, growth/viability
Text: as §1, §2

OVCA420 OVCA cell line = assay: CellTiter-Blue cell viability assay, OVCA420; type: cell-based; settings: Homo sapiens, OVCA 420; OVCA420 cells, 72 hours, growth/viability
Text: as §1, §2

PEO4 OVCA cell line = assay: CellTiter-Blue cell viability assay, PEO4; type: cell-based; settings: Homo sapiens; PEO4 cells, 72 hours, growth/viability
Text: as §1, §2

OVCAR2 OVCA cell line = assay: CellTiter-Blue cell viability assay, OVCAR2; type: cell-based; settings: Homo sapiens; OVCAR2 cells, 72 hours, growth/viability
Text: as §1, §2

A2008 OVCA cell line = assay: CellTiter-Blue cell viability assay, A2008; type: cell-based; settings: Homo sapiens; A2008 cells, 72 hours, growth/viability
Text: as §1, §2

OVCA432 OVCA cell line = assay: CellTiter-Blue cell viability assay, OVCA432; type: cell-based; settings: Homo sapiens; OVCA432 cells, 72 hours, growth/viability
Text: as §1, §2

Dov13 OVCA cell line = assay: CellTiter-Blue cell viability assay, Dov13; type: cell-based; settings: Homo sapiens; Dov13 cells, 72 hours, growth/viability
Text: as §1, §2

CAOV2 OVCA cell line = assay: CellTiter-Blue cell viability assay, CAOV2; type: cell-based; settings: Homo sapiens; CAOV2 cells, 72 hours, growth/viability
Text: as §1, §2

A2780CP OVCA cell line = assay: CellTiter-Blue cell viability assay, A2780CP; type: cell-based; settings: Homo sapiens, A2780C/P; A2780CP cells, 72 hours, growth/viability
Text: as §1, §2

OVCAR10 OVCA cell line = assay: CellTiter-Blue cell viability assay, OVCAR10; type: cell-based; settings: Homo sapiens; OVCAR10 cells, 72 hours, growth/viability
Text: as §1, §2

PEO1 OVCA cell line = assay: CellTiter-Blue cell viability assay, PEO1; type: cell-based; settings: Homo sapiens; PEO1 cells, 72 hours, growth/viability
Text: as §1, §2

OVCAR8 OVCA cell line = assay: CellTiter-Blue cell viability assay, OVCAR8; type: cell-based; settings: Homo sapiens, OVCAR-8; OVCAR8 cells, 72 hours, growth/viability
Text: as §1, §2

TOV-21G OVCA cell line = assay: CellTiter-Blue cell viability assay, TOV-21G; type: cell-based; settings: Homo sapiens, TOV21G; TOV-21G cells, 72 hours, growth/viability
Text: as §1, §2

BG1 OVCA cell line = assay: CellTiter-Blue cell viability assay, BG1; type: cell-based; settings: Homo sapiens, BG-1; BG1 cells, 72 hours, growth/viability
Text: as §1, §2

T8 OVCA cell line = assay: CellTiter-Blue cell viability assay, T8; type: cell-based; settings: Homo sapiens; T8 cells, 72 hours, growth/viability
Text: as §1, §2

OVCA433 OVCA cell line = assay: CellTiter-Blue cell viability assay, OVCA433; type: cell-based; settings: Homo sapiens; OVCA433 cells, 72 hours, growth/viability
Text: as §1, §2

OV90 OVCA cell line = assay: CellTiter-Blue cell viability assay, OV90; type: cell-based; settings: Homo sapiens, OV-90; OV90 cells, 72 hours, growth/viability
Text: as §1, §2

Tyknu OVCA cell line = assay: CellTiter-Blue cell viability assay, Tyknu; type: cell-based; settings: Homo sapiens; Tyknu cells, 72 hours, growth/viability
Text: as §1, §2

OV2008 OVCA cell line = assay: CellTiter-Blue cell viability assay, OV2008; type: cell-based; settings: Homo sapiens; OV2008 cells, 72 hours, growth/viability
Text: as §1, §2

M41 OVCA cell line = assay: CellTiter-Blue cell viability assay, M41; type: cell-based; settings: Homo sapiens; M41 cells, 72 hours, growth/viability
Text: as §1, §2

IMCC5 OVCA cell line = assay: CellTiter-Blue cell viability assay, IMCC5; type: cell-based; settings: Homo sapiens; IMCC5 cells, 72 hours, growth/viability
Text: as §1, §2

FUOV1 OVCA cell line = assay: CellTiter-Blue cell viability assay, FUOV1; type: cell-based; settings: Homo sapiens; FUOV1 cells, 72 hours, growth/viability
Text: as §1, §2

OVCAR5 OVCA cell line = assay: CellTiter-Blue cell viability assay, OVCAR5; type: cell-based; settings: Homo sapiens, OVCAR-5; OVCAR5 cells, 72 hours, growth/viability
Text: as §1, §2

OVCA429 OVCA cell line = assay: CellTiter-Blue cell viability assay, OVCA429; type: cell-based; settings: Homo sapiens; OVCA429 cells, 72 hours, growth/viability
Text: as §1, §2

SK-OV-3 OVCA cell line = assay: CellTiter-Blue cell viability assay, SK-OV-3; type: cell-based; settings: Homo sapiens; SK-OV-3 cells, 72 hours, growth/viability
Text: as §1, §2

Ovary1847 OVCA cell line = assay: CellTiter-Blue cell viability assay, Ovary1847; type: cell-based; settings: Homo sapiens; Ovary1847 cells, 72 hours, growth/viability
Text: as §1, §2

OVCAR3 OVCA cell line = assay: CellTiter-Blue cell viability assay, OVCAR3; type: cell-based; settings: Homo sapiens, OVCAR-3; OVCAR3 cells, 72 hours, growth/viability
Text: as §1, §2

OVCAR4 OVCA cell line = assay: CellTiter-Blue cell viability assay, OVCAR4; type: cell-based; settings: Homo sapiens, OVCAR-4; OVCAR4 cells, 72 hours, growth/viability
Text: as §1, §2

A2780S OVCA cell line = assay: CellTiter-Blue cell viability assay, A2780S; type: cell-based; settings: Homo sapiens; A2780S cells, 72 hours, growth/viability
Text: as §1, §2

CHI OVCA cell line = assay: CellTiter-Blue cell viability assay, CHI; type: cell-based; settings: Homo sapiens; CHI cells, 72 hours, growth/viability
Text: as §1, §2

[1] = test system: patients with recurrent OVCA; settings: 800-1250 mg/m^2/week, Phase II and III studies; cited from earlier work
IMCC3 OVCA cell line = assay: CellTiter-Blue cell viability assay, IMCC3; type: cell-based; settings: Homo sapiens; IMCC3 cells, 72 hours, growth/viability
Text: as §1, §2

C13 OVCA cell line = assay: CellTiter-Blue cell viability assay, C13; type: cell-based; settings: Homo sapiens; C13 cells, 72 hours, growth/viability
Text: as §1, §2

SK-OV-4 OVCA cell line = assay: CellTiter-Blue cell viability assay, SK-OV-4; type: cell-based; settings: Homo sapiens; SK-OV-4 cells, 72 hours, growth/viability
Text: as §1, §2

TyknuCisR OVCA cell line = assay: CellTiter-Blue cell viability assay, TyknuCisR; type: cell-based; settings: Homo sapiens; TyknuCisR cells, 72 hours, growth/viability
Text: as §1, §2

CAOV3 OVCA cell line = assay: CellTiter-Blue cell viability assay, CAOV3; type: cell-based; settings: Homo sapiens, Caov-3; CAOV3 cells, 72 hours, growth/viability
Text: as §1, §2

HeyA8 OVCA cell line = assay: CellTiter-Blue cell viability assay, HeyA8; type: cell-based; settings: Homo sapiens, HEY A8; HeyA8 cells, 72 hours, growth/viability
Text: as §1, §2

TOV-112D OVCA cell line = assay: CellTiter-Blue cell viability assay, TOV-112D; type: cell-based; settings: Homo sapiens, TOV112D; TOV-112D cells, 72 hours, growth/viability
Text: as §1, §2

SK-OV-6 OVCA cell line = assay: CellTiter-Blue cell viability assay, SK-OV-6; type: cell-based; settings: Homo sapiens; SK-OV-6 cells, 72 hours, growth/viability
Text: as §1, §2

Nc1ccn([C@@H]2O[C@H](CO)[C@@H](O)C2(F)F)c(=O)n1 [Gemcitabine, 2′,2′-difluorodeoxycytidine] gave an IC50 (M41CSR OVCA cell line) of 37.4 nM, an IC50 (IGR-OV1 OVCA cell line) of 531 nM and an IC50 (MCAS OVCA cell line) of 56.4 µM. For the same molecule, the IC50 (CHIcisR OVCA cell line) was 23.7 nM, the IC50 (OVCA420 OVCA cell line) was 12.7 µM and the IC50 (PEO4 OVCA cell line) was 536 nM. The IC50 (OVCAR2 OVCA cell line) was 22 nM, the IC50 (A2008 OVCA cell line) was 164 nM and the IC50 (OVCA432 OVCA cell line) was 14.9 µM. For the same molecule, the IC50 (Dov13 OVCA cell line) was 6 nM, the IC50 (CAOV2 OVCA cell line) was 3.9 µM and the IC50 (A2780CP OVCA cell line) was 366 nM. The IC50 (OVCAR10 OVCA cell line) was 672 nM, the IC50 (PEO1 OVCA cell line) was 135 nM and the IC50 (OVCAR8 OVCA cell line) was 273 nM. The IC50 (TOV-21G OVCA cell line) was 764 nM, the IC50 (BG1 OVCA cell line) was 30.4 µM and the IC50 (T8 OVCA cell line) was 256 nM. It also gave an IC50 (OVCA433 OVCA cell line) of 9.9 nM, an IC50 (OV90 OVCA cell line) of 18.9 nM and an IC50 (Tyknu OVCA cell line) of 4.6 nM. For the same molecule, the IC50 (OV2008 OVCA cell line) was 384 nM, the IC50 (M41 OVCA cell line) was 39.5 nM and the IC50 (IMCC5 OVCA cell line) was 105 nM. It also gave an IC50 (FUOV1 OVCA cell line) of 59.4 µM, an IC50 (OVCAR5 OVCA cell line) of 278 nM and an IC50 (OVCA429 OVCA cell line) of 22.2 nM. For the same molecule, the IC50 (SK-OV-3 OVCA cell line) was 16.1 µM, the IC50 (Ovary1847 OVCA cell line) was 865 nM and the IC50 (OVCAR3 OVCA cell line) was 6.2 µM. For the same molecule, the IC50 (OVCAR4 OVCA cell line) was 655 nM, the IC50 (A2780S OVCA cell line) was 51.8 nM and the IC50 (CHI OVCA cell line) was 269 nM. For the same molecule, the response rates [1] was “up to 19%”, the IC50 (IMCC3 OVCA cell line) was 943 nM and the IC50 (C13 OVCA cell line) was 418 nM. The IC50 (SK-OV-4 OVCA cell line) was 3.3 nM, the IC50 (TyknuCisR OVCA cell line) was 8.5 nM and the IC50 (CAOV3 OVCA cell line) was 2.2 nM. The IC50 (HeyA8 OVCA cell line) was 1500 nM, the IC50 (TOV-112D OVCA cell line) was 44.5 µM and the IC50 (SK-OV-6 OVCA cell line) was 3.5 µM.
